Results as given in the Kinase Knowledgebase extract (Sharma et al. 2016).

Molecular target: EGFR (UniProt P00533)
Test: Inhibition of EGFR Kinase Activity

Chain of EGFR (P00533 whole entry, looked up): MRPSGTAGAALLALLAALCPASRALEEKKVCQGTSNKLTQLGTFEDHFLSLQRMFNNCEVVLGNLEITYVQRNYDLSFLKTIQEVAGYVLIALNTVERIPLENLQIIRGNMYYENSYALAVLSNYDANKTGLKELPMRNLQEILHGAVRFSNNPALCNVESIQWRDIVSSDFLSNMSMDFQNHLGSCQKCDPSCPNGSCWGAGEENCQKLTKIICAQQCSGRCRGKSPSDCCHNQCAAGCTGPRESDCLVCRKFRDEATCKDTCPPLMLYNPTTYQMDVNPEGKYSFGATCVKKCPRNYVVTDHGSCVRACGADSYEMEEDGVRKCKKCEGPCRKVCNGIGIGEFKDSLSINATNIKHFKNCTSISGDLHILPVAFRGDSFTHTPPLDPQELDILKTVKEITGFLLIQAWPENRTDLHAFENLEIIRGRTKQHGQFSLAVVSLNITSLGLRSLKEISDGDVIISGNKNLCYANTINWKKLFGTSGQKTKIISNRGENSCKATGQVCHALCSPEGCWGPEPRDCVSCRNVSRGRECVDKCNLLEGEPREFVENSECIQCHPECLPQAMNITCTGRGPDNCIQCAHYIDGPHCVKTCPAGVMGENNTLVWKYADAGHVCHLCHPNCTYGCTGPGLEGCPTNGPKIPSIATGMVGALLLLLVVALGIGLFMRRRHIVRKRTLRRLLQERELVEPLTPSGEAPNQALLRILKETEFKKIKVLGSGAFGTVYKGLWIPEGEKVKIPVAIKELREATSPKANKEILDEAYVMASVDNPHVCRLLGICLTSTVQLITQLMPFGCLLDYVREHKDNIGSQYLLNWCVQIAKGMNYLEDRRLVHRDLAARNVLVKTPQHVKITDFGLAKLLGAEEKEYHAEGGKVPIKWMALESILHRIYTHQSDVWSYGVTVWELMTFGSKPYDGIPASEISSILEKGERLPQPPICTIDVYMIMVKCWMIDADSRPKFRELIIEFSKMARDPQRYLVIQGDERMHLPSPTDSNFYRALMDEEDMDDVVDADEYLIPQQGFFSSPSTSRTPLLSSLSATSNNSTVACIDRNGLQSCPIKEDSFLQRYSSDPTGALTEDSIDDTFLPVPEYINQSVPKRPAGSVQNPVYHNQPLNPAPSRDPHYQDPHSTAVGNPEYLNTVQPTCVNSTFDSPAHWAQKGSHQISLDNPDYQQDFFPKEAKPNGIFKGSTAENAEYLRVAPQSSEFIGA

Row | SMILES | IC50 [µM]
1 | COc1ccc(N2C(=O)N(c3ccccc3)c3nc(Nc4ccccc4)ncc3[C@H]2C)cc1 | < 10
2 | COc1ccc(N2C(=O)N(c3ccccc3)c3nc(Nc4ccccc4)ncc3C2C)c(F)c1 (configuration not stated) | < 10
3 | COc1ccc(N2C(=O)N(c3cccc(C#N)c3)c3nc(Nc4ccccc4)ncc3C2C)cc1 (configuration not stated) | < 10
4 | COc1ccc(N2C(=O)N([C@@H](C)c3ccccc3)c3nc(Nc4ccccc4)ncc3C2C)cc1 (some centres not stated) | < 10
5 | COc1ccc(N2C(=O)N(c3cccc(C#N)c3)c3nc(Nc4ccccc4)ncc3C2C)c(F)c1 (configuration not stated) | < 10
6 | COc1ccc(Cl)c(N2C(=O)N(c3ccccc3)c3nc(Nc4ccccc4)ncc3C2C)c1 (configuration not stated) | < 10
7 | COc1ccc(N2C(=O)N(c3ccccc3)c3nc(N(C(C)=O)c4ccccc4)ncc3C2C)cc1 (configuration not stated) | < 10
8 | COc1ccc(N2C(=O)N(c3ccccc3)c3nc(Nc4ccccc4)ncc3C2C)cc1 (configuration not stated) | < 10
9 | COc1ccc(N2C(=O)N(c3ccccc3)c3nc(Nc4ccccc4)ncc3C2C(C)C)cc1 (configuration not stated) | < 10

Now from value to compound:

Row | IC50 [µM] | SMILES
10 | < 10 | COc1ccc(N2C(=O)N(c3cccc(C(N)=O)c3)c3nc(Nc4ccccc4)ncc3C2C)c(F)c1 (configuration not stated)
11 | < 10 | COc1ccc(N2C(=O)N([C@H](C)CO)c3nc(Nc4ccccc4)ncc3[C@H]2C)cc1
12 | < 10 | COc1ccc(N2C(=O)N(c3ccccc3)c3nc(Nc4ccccc4)ncc3[C@@H]2C)cc1
13 | < 10 | COc1ccc(N2C(=O)N(c3cccc(C(N)=O)c3)c3nc(Nc4ccccc4)ncc3C2C)cc1 (configuration not stated)
14 | < 10 | COc1ccc(N2C(=O)N([C@H]3CC[C@H](O)CC3)c3nc(Nc4ccccc4)ncc3C2C)cc1 (some centres not stated)
15 | < 10 | CCC1c2cnc(Nc3ccccc3)nc2N(c2ccccc2)C(=O)N1c1ccc(OC)cc1 (configuration not stated)
16 | < 10 | COc1ccc(N2C(=O)N(c3ccc(OC)cc3)C(C)c3cnc(Nc4ccccc4)nc32)cc1 (configuration not stated)
17 | < 10 | COc1ccc(N2C(=O)N([C@H](C)CO)c3nc(Nc4ccccc4)ncc3[C@@H]2C)cc1
